Test [1] concerns influenza virus (Strain A/Singapore). As to the kind of experiment: Anti-HA antibody titration by inhibition of influenza virus-induced haemagglutination after subcutaneous immunization. It counts as in vivo, Balb/c mice. The settings on record: 5 μg of HA, in comparison with mice which received the vaccine without adjuvant (Group A). The method, then:
5 groups of 4 Balb/c mice are immunized by 3 subcutaneous injections performed on D0, D21 and D36 with the following vaccine compositions:
Group A: 0.3 ml of diluted strain A/Singapore monovalent influenza vaccine containing 5 μg of HA in 0.3 ml of PBS,
Group B: 0.3 ml of vaccine composition obtained according to Example 2,
Group C: 0.3 ml of vaccine composition obtained according to Example 3,
Group D: 0.3 ml of vaccine composition obtained according to Example 6,
Group E: 0.3 ml of vaccine composition obtained according to Example 7.
In order to perform the assays for neutralizing antibodies, the sera of mice are sampled on D21, D36 and […], and the titration of anti-HA antibodies is performed by means of the technique of inhibition of influenza virus-induced haemagglutination.
The titres of neutralizing antibodies in the mouse sera are presented in the form of log2 of the highest dilution inducing haemagglutination inhibition.

The test system of test [2] is trivalent influenza vaccine comprising strain A/Texas, strain B/Panama and strain A/Beijing. Put plainly: Tests with a trivalent influenza vaccine. The class given is in vivo.
Test [3] concerns strain A/Singapore monovalent influenza vaccine. As to the kind of experiment: Immune response (HAI) as a function of the dose of DC chol. The class given is in vivo, female Balb/c mice. The settings on record: DC chol/DOPC liposomes, injected D0 and D28, sera D42.
For test [4] the test system is unchanged. As to the kind of experiment: Induction of antibody isotypes IgG1 and IgG2 (ELISA) in adult mice. The settings on record: 400 μg of DC chol with DOPC. The class given is in vivo, 8- to 10-week-old female BALB/c adult mice.
The test system is the same in test [5]. As to the kind of experiment: Induction of antibody isotypes (ELISA) in elderly mice. The class given is in vivo, 20 to 22-month-old mice. The settings on record: primary and secondary response. The protocol: The same experiment is carried out exactly as in Example 12 but, in this instance, the mice tested are 20 to 22-month-old mice which are more difficult to stimulate.
In general terms: An ELISA detects its analyte on a solid surface through an enzyme-linked reagent.

The test system is the same in test [6]. Put plainly: Immunization by combined subcutaneous and intranasal administration. It counts as in vivo, BALB/c mice. The protocol: Two groups of 4 BALB/c mice are immunized twice with an interval of 4 weeks with, on each occasion, the following vaccine compositions:
Group 3 (G3):—a vaccine composition of 300 μl injected subcutaneously comprising 4 μg of HA (in the form of strain A/Singapore monovalent influenza vaccine) combined with […] of DC chol (in the form of DC chol/DOPC liposomes), and
a vaccine composition of 50 μl administered intranasally comprising 0.25 μg of HA (in the form of strain A/Singapore monovalent influenza vaccine) combined with 6 μg of DC chol (in the form of DC chol/DOPC liposomes),
Group 4 (G4):—a vaccine composition of 300 μl injected subcutaneously comprising 4 μg of HA combined with 200 μg of DC chol, and
a vaccine composition of 50 μl administered intranasally comprising 0.25 μg of HA combined with 200 μg of DC chol.
The sera of the immunized mice are sampled 3 weeks after the booster administration and, for each mouse, the level of neutralizing antibodies is assayed by the HAI haemagglutination inhibition technique.

Turning to `CC(C)CCC[C@@H](C)[C@H]1CC[C@H]2[C@@H]3CC=C4C[C@@H](OC(=O)NCCN(C)C)CC[C@]4(C)[C@H]3CC[C@]12C` [DC chol, 3β-[N-(N′,N′-dimethylaminoethane)-carbamoyl]cholesterol], the “level of anti-HA antibodies (HAI)” value in test [1] was “markedly higher”. In addition, the “adjuvant power with trivalent influenza vaccine” value in test [2] is “adjuvant power”. Besides, in test [3], the “dose of DC chol at which the maximum benefit of the adjuvant effect is obtained (HAI titre)” value is on record as “above 100 μg of DC chol/dose”. The “IgG2a produced (ELISA)” value in test [4] is on record as “large increase”. Moreover, the “adjuvant effect on IgG1 and IgG2 produced (ELISA)” value in test [4] (primary and secondary response, in comparison to aluminium hydroxide) is on record as “adjuvant effect”. For the same compound, the “adjuvant effect on IgG1 and IgG2 produced (ELISA), in particular IgG2a” value in test [5] is on record as “adjuvant effect”. In addition, in test [6] (6 versus 200 μg of DC chol), the “number of cells secreting IgG and IgA in the lungs (ELISPOT): dose effect” value is “identical dose effect”; the “ratio of specific IgG (or IgA) to total IgG (or IgA) in nasopharyngeal lavage fluids: dose effect” value is “identical dose effect”; the “serum IgG measured by ELISA: dose effect” value was “identical dose effect”. Moreover, the “level of neutralizing antibodies (HAI): effect of the dose of DC chol” value in test [6] (dose of DC chol from 6 to 200 μg, mixed subcutaneous and intranasal) was “enables the immune response to be increased”. Moreover, in test [6] (mixed subcutaneous and intranasal administration), the “level of neutralizing antibodies (HAI): adjuvant effect” value is given as “adjuvant effect”.

Source of the values: patent publication US6780421B1, “Adjuvant for a vaccine composition” (priority 1997, dated 2004).
